Data on 14 molecules can be found in patent publication US8088806B2 (Achillion Pharmaceuticals, Inc., priority 2005, dated 2012).

Counter-ions that a name gives are not always drawn.

One experiment deals with HCV replicon. As to the kind of experiment: Replicon based assay of HCV replication inhibition (NPT ELISA). Type of experiment: cell-based, Hepatitis C virus. As to conditions: Hepatitis C virus, Huh-7, 72 h, Table I; Huh-7 HCV replicon-containing cells, three days; read-out: Activity. In outline:
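NPT (neomycin phosphotransferase) content, proportional to replicon replication, quantified by capture ELISA on day four. Before that, replicon-bearing Huh-7 cells in G418-free screening medium were exposed three days at 37° C to compound, typically six doses from 10 to 0.03 micromolar, with equal DMSO across wells.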
A general note: In antiviral work, replicon cells carry a viral genome segment that copies itself.
As for `CCCCCOc1ccc(Nc2nc(CN(C)CC(N)=O)cs2)cc1C(F)(F)F` [compound 218, 2-(N-((2-(3-(trifluoromethyl)-4-(pentyloxy)phenylamino)thiazol-4-yl)methyl)-N-methylamino)acetamide], the EC50 was under 1000 nM.
Still for that read-out and setting: the result for `CCCCCOc1ccc(Nc2nc(-c3ccc(C(=O)N(C)CC(N)=O)nc3)cs2)cc1C(F)(F)F` [compound 221, 5-(2-(3-(trifluoromethyl)-4-(pentyloxy)phenylamino)thiazol-4-yl)-N-(carbamoylmethyl)-N-methylpyridine-2-carboxamide] reads under 1000 nM.
Turning to `CCCCCOc1ccc(Nc2nc(-c3ccc(C(=O)N4CCNC(=O)C4)nc3)cs2)cc1C(F)(F)F` [compound 222], the EC50 was under 1000 nM.
As for `CCCCCOc1ccc(Nc2nc(-c3cn4ccccc4n3)cs2)cc1C(F)(F)F` [compound 223, N-(3-(trifluoromethyl)-4-(pentyloxy)phenyl)-4-(H-imidazo[1,2-a]pyridin-2-yl)thiazol-2-amine], the EC50 was under 1000 nM.

Still in this experiment, the particulars now being: Hepatitis C virus, replicon based assay of HCV replication inhibition; Table II; read-out: Activity.
On to `CCCCCOc1ccc(Nc2nc(C3CCCN(C(=O)OC(C)(C)C)C3)cs2)cc1C(F)(F)F` (centres unmarked) [compound 224, tert-butyl 3-(2-(4-(pentyloxy)-3-(trifluoromethyl)phenyl-amino)thiazol-4-yl)piperidine-1-carboxylate], for which the EC50 was under 1000 nM.
Same read-out and setting: the result for `CCCCCOc1ccc(Nc2nc(C3CCCNC3)cs2)cc1C(F)(F)F` (centres unmarked) [compound 225, N-(4-(pentyloxy)-3-(trifluoromethyl)phenyl)-4-(piperidin-3-yl)thiazol-2-amine hydrochloride] reads 1000 to 10000 nM; that for `CCCCCOc1ccc(Nc2nc(C3CCCN3C(=O)C(F)(F)F)cs2)cc1C(F)(F)F` (centres unmarked) [compound 226, 2,2,2-trifluoro-1-(2-(2-(4-(pentyloxy)-3(trifluoromethyl)phenyl-amino)thiazol-4-yl)pyrrolidin-1-yl)ethanone], 1000 to 10000 nM.
Same read-out and setting: next, `CCCCCOc1ccc(Nc2nc(-c3cnc4scc(C)n34)cs2)cc1C(F)(F)F` [compound 227, 4-(3-methylimidazo[1,2-b]thiazol-5-yl)-N-(4-(pentyloxy)-3-(trifluoromethyl)phenyl)thia-zol-2-amine]: under 1000 nM.
On the same count and under the same terms, the result for `CCCCCOc1ccc(Nc2nc(C3=CSC4=NCCN34)cs2)cc1C(F)(F)F` [compound 228, 4-(5,6-dihydroimidazo[2,1-b]thiazol-3-yl)-N-(4-(pentyloxy)-3-(trifluoromethyl)phenyl)thia-zol-2-amine] reads under 1000 nM; that for `CCCCCOc1ccc(Nc2nc(C3=NN=C(N)SC3)cs2)cc1C(F)(F)F` [compound 229, 5-(2-(4-(pentyloxy)-3-(trifluoromethyl)phenyl-amino)thiazol-4-yl)-6H-1,3,4-thiazdiazin-2-amine], under 1000 nM; that for `CCCCCOc1ccc(Nc2nc(CN3CCCCC3)cs2)cc1C(F)(F)F` [compound 230, N-(4-(pentyloxy)-3-(trifluoromethyl)phenyl)-4-(piperidin-1-ylmethyl)thiazol-2-amine], 1000 to 10000 nM.
On to `CCCCCOc1ccc(Nc2nc(CN3CCC(C)CC3)cs2)cc1C(F)(F)F` [compound 231, 4-((4-methylpiperidin-1-yl)methyl)-N-(4-(pentyloxy)-3-(trifluoromethyl)phenyl)thia-zol-2-amine], for which the EC50 is under 1000 nM.
On the same count and under the same terms, next, `CCCCCOc1ccc(Nc2nc(C(=O)Nc3ccncc3)cs2)cc1C(F)(F)F` [compound 232, 2-(4-(pentyloxy)-3-(trifluoromethyl)phenyl-amino)-N-(pyridin-4-yl)thiazole-4-carboxamide]: 1000 to 10000 nM.
On the same count and under the same terms, next, `CCCCCOc1ccc(Nc2nc(C(=O)Nc3ccc(C(F)(F)F)nc3)cs2)cc1C(F)(F)F` [compound 233, 2-(4-(pentyloxy)-3-(trifluoromethyl)phenyl-amino)-N-(6-(trifluoromethyl)pyridin-3-yl)thiazole-4-carboxamide]: over 10000 nM.
